Counter-ions that a name gives are not always drawn.
COc1cc2nncc(C(C#N)C3=NC(C)(C)CN3C(C)C)c2cc1OC (stereo not shown) (as salt: hydrochloride) [Compound 110, (4,5-Dihydro-4,4-dimethyl-1-isopropyl-1H-imidazol-2-yl) (6,7-dimethoxycinnolin-4-yl)-acetonitrile hydrochloride]
melting point: 210 to 212 °C (dec.)

From patent publication US20060160814A1, “Phosphodiesterase 10 inhibitors” (priority 2004, published 2006)
